Data reported in PubChem BioAssay (NCI).
Values joined by “and” are separate entries in the source; they are usually repeats but may differ in a detail not shown here. Identical values can stand only once.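 How tested: cells in 96-well plates exposed to compound for 48 hours at five concentrations. GI50 is the concentration that inhibits growth by half. TGI: total growth inhibition.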

Tests used:
Test in all cases: NCI tumour cell line growth inhibition, 48 h
HT29 colon = test system: HT29 colon
DMS 114 small cell lung = test system: DMS 114 small cell lung
OVCAR-4 ovarian = test system: OVCAR-4 ovarian
SN12K1 renal = test system: SN12K1 renal
SNB-19 CNS = test system: SNB-19 CNS
SN12C renal = test system: SN12C renal
XF 498 CNS = test system: XF 498 CNS
ACHN renal = test system: ACHN renal
K-562 leukemia = test system: K-562 leukemia
SK-MEL-28 melanoma = test system: SK-MEL-28 melanoma
786-0 renal = test system: 786-0 renal
HCT-15 colon = test system: HCT-15 colon
SK-MEL-5 melanoma = test system: SK-MEL-5 melanoma
DMS 273 small cell lung = test system: DMS 273 small cell lung
UO-31 renal = test system: UO-31 renal
A498 renal = test system: A498 renal
HOP-62 NSCLC = test system: HOP-62 NSCLC
SW-620 colon = test system: SW-620 colon
NCI-H522 lung = test system: NCI-H522 lung
DLD-1 colon = test system: DLD-1 colon
CAKI-1 renal = test system: CAKI-1 renal
KM20L2 colon = test system: KM20L2 colon
SR leukemia = test system: SR leukemia
A549 NSCLC = test system: A549 NSCLC
SNB-78 CNS = test system: SNB-78 CNS
CCRF-CEM leukemia = test system: CCRF-CEM leukemia
U251 CNS = test system: U251 CNS
PC-3 prostate = test system: PC-3 prostate
HS 578T breast = test system: HS 578T breast
MCF7 breast = test system: MCF7 breast
BT-549 breast = test system: BT-549 breast
T-47D breast = test system: T-47D breast
NCI-H226 lung = test system: NCI-H226 lung
KM12 colon = test system: KM12 colon
HOP-92 NSCLC = test system: HOP-92 NSCLC
SF-268 CNS = test system: SF-268 CNS
DU-145 prostate = test system: DU-145 prostate
M19-MEL melanoma = test system: M19-MEL melanoma
SF-539 CNS = test system: SF-539 CNS
COLO 205 colon = test system: COLO 205 colon
HCT-116 colon = test system: HCT-116 colon
P388 leukemia = test system: P388 leukemia
SK-OV-3 ovarian = test system: SK-OV-3 ovarian
RPMI-8226 leukemia = test system: RPMI-8226 leukemia
HL-60(TB) leukemia = test system: HL-60(TB) leukemia
MALME-3M melanoma = test system: MALME-3M melanoma
EKVX NSCLC = test system: EKVX NSCLC
M14 melanoma = test system: M14 melanoma
UACC-62 melanoma = test system: UACC-62 melanoma
HOP-18 NSCLC = test system: HOP-18 NSCLC
OVCAR-3 ovarian = test system: OVCAR-3 ovarian
RXF 393 renal = test system: RXF 393 renal
P388/ADR leukemia = test system: P388/ADR leukemia
MDA-MB-435 = test system: MDA-MB-435
SF-295 CNS = test system: SF-295 CNS
TK-10 renal = test system: TK-10 renal
IGROV1 ovarian = test system: IGROV1 ovarian
MOLT-4 leukemia = test system: MOLT-4 leukemia
HCC-2998 colon = test system: HCC-2998 colon
SK-MEL-2 melanoma = test system: SK-MEL-2 melanoma
UACC-257 melanoma = test system: UACC-257 melanoma
NCI-H23 lung = test system: NCI-H23 lung
LOX IMVI melanoma = test system: LOX IMVI melanoma
OVCAR-5 ovarian = test system: OVCAR-5 ovarian
MDA-MB-231 breast = test system: MDA-MB-231 breast
MDA-N = test system: MDA-N
NCI/ADR-RES ovarian = test system: NCI/ADR-RES ovarian
OVCAR-8 ovarian = test system: OVCAR-8 ovarian
SNB-75 CNS = test system: SNB-75 CNS

## COc1ccc2[nH]c3ccc4cc[n+](CCN5CCC(C6CCN(CC[n+]7ccc8ccc9[nH]c%10ccc(OC)cc%10c9c8c7)CC6)CC5)cc4c3c2c1
HT29 colon
  GI50: 0.938 µM
  TGI: 31.4 µM and > 100 µM
DMS 114 small cell lung
  TGI: 4.08 µM
OVCAR-4 ovarian
  TGI: 17.7 µM and > 100 µM
SN12K1 renal
  TGI: > 52 µM
SNB-19 CNS
  GI50: > 50 µM
  TGI: > 70.9 µM
SN12C renal
  GI50: 8.76 µM
  TGI: 50 µM
XF 498 CNS
  TGI: > 75.9 µM
ACHN renal
  TGI: 50 µM
K-562 leukemia
  GI50: 0.164 µM
  TGI: 1.41 µM and 7.67 µM
SK-MEL-28 melanoma
  GI50: > 50 µM
  TGI: > 50 µM
786-0 renal
  TGI: 50 µM
HCT-15 colon
  GI50: 0.266 µM
SK-MEL-5 melanoma
  GI50: 6.7 µM
  TGI: 41.3 µM and 60.7 µM
DMS 273 small cell lung
  TGI: > 100 µM
UO-31 renal
  GI50: 42.5 µM
  TGI: 50 µM and > 100 µM
A498 renal
  GI50: > 50 µM
  TGI: > 53.8 µM
HOP-62 NSCLC
  GI50: 34.4 µM
  TGI: 50 µM and > 100 µM
SW-620 colon
  TGI: > 36.9 µM
NCI-H522 lung
  GI50: > 50 µM
  TGI: > 50 µM and 5.27 µM
DLD-1 colon
  TGI: > 100 µM
CAKI-1 renal
  GI50: 10.9 µM
  TGI: 50 µM and 68.1 µM
KM20L2 colon
  TGI: > 100 µM
SR leukemia
  TGI: 50 µM
A549 NSCLC
  GI50: 0.747 µM
  TGI: 50 µM and > 62.2 µM
SNB-78 CNS
  TGI: 66.4 µM
CCRF-CEM leukemia
  GI50: 0.566 µM
  TGI: 25.4 µM and 16.8 µM
U251 CNS
  GI50: > 50 µM
  TGI: > 52.3 µM
PC-3 prostate
  TGI: 50 µM
HS 578T breast
  TGI: 50 µM
MCF7 breast
  GI50: 0.313 µM and 0.488 µM
  TGI: 50 µM and > 28.3 µM
BT-549 breast
  TGI: 50 µM
T-47D breast
  TGI: 50 µM
NCI-H226 lung
  TGI: 50 µM
KM12 colon
  GI50: 0.631 µM
  TGI: 50 µM and > 92.7 µM
HOP-92 NSCLC
  GI50: 27.7 µM
  TGI: 28.1 µM and 5.47 µM
SF-268 CNS
  TGI: 50 µM and > 56.9 µM
DU-145 prostate
  TGI: 50 µM
M19-MEL melanoma
  TGI: 16.1 µM
SF-539 CNS
  GI50: 1.26 µM
  TGI: 50 µM and > 100 µM
COLO 205 colon
  TGI: > 50 µM
HCT-116 colon
  GI50: 0.374 µM
  TGI: 50 µM and > 57.1 µM
P388 leukemia
  TGI: > 100 µM
SK-OV-3 ovarian
  GI50: 33.2 µM
  TGI: 45.8 µM and 20.6 µM
RPMI-8226 leukemia
  GI50: 0.367 µM and 0.443 µM
HL-60(TB) leukemia
  GI50: 4.47 µM and 0.899 µM
  TGI: 50 µM and 8.43 µM
MALME-3M melanoma
  TGI: 50 µM
EKVX NSCLC
  GI50: 3.19 µM
  TGI: > 50 µM and 63.1 µM
M14 melanoma
  TGI: > 50 µM
UACC-62 melanoma
  GI50: 31 µM
  TGI: 50 µM and 17.7 µM
HOP-18 NSCLC
  TGI: 15.1 µM
OVCAR-3 ovarian
  GI50: 42.6 µM
  TGI: 50 µM and > 76.2 µM
RXF 393 renal
  GI50: 38.1 µM
  TGI: 50 µM and 10.8 µM
P388/ADR leukemia
  TGI: > 100 µM
MDA-MB-435
  TGI: > 50 µM
SF-295 CNS
  GI50: 34.5 µM
  TGI: 44.8 µM and 42.2 µM
TK-10 renal
  TGI: 27.2 µM
IGROV1 ovarian
  GI50: 0.269 µM
  TGI: 50 µM and > 19 µM
MOLT-4 leukemia
  GI50: 0.209 µM
  TGI: 50 µM and > 100 µM
HCC-2998 colon
  TGI: 14.2 µM and > 100 µM
SK-MEL-2 melanoma
  TGI: > 90.7 µM
UACC-257 melanoma
  GI50: 12.1 µM
  TGI: 50 µM and > 100 µM
NCI-H23 lung
  GI50: 4.46 µM
  TGI: > 100 µM
LOX IMVI melanoma
  TGI: 50 µM and > 58.6 µM
OVCAR-5 ovarian
  GI50: 39.2 µM
  TGI: 50 µM and > 91.1 µM
MDA-MB-231 breast
  TGI: 50 µM
MDA-N
  TGI: 50 µM
NCI/ADR-RES ovarian
  GI50: 35.2 µM
  TGI: 50 µM and > 46.4 µM
OVCAR-8 ovarian
  GI50: 8.28 µM
  TGI: 50 µM and > 100 µM
SNB-75 CNS
  TGI: 50 µM
